Experimental data published in patent US20250101011A1, “PEPTIDYL NITRILE COMPOUND AND USE THEREOF” (SHANGHAI YIDIAN PHARMACEUTICAL TECHNOLOGY DEVELOPMENT CO., …, priority 2022, published 2025).
Each block holds one compound with its values, some of them ahead of it.

Tests used:
DPP1 = DPP1 (Homo sapiens (Human), UniProt P53634); experiment: DPP1 activity inhibition test on U937 cells; assay type: cell-based; details: substrate h-Gly-phe-AFC; for inhibition at 0.005 µM: U-937, 5 nM compound; for inhibition at 0.05 µM: U-937, 50 nM compound; for IC50: intracellular enzyme activity
Procedure: After incubation at 37° C. for 1 h, add h-Gly-phe-AFC (10 μL) to each well and start reaction.

rhCathepsin C/DPP1 = rhCathepsin C/DPP1 (Homo sapiens (Human), UniProt P53634); experiment: Test for inhibition of DPP1 enzyme activity; assay type: biochemical; details: recombinant human cathepsin C/DPP1; substrate Gly-Arg-AMC
Procedure: Recombinant human cathepsin, rhCathepsin C/DPP1, purchased from R&D systems
Gly-Arg-AMC (hydrOCHloride), purchased from Cayman chemical
• 1) Preparation and handling of compounds: Accurately weigh the compound and dissolve it in […] of DMSO to prepare a […] of the bulk, which is further diluted as required. • 2) Screening test: Dilute recombinant human cathepsin rhCathepsin C/DPP1 and recombinant human cathepsin rhCathepsin L with an activating buffer solution, and incubate at 37° C. for 60 min. Add 4 μL of test compound to the white well of the 384-well plate. Add 4 μL of the enzyme mixture after incubation to the white wells. Block the 384-well plate and allow to stand at room temperature for 30 min, and add 8 μL of 2-fold diluted Gly-Arg-AMC (hydrochloride). Block the 384-well plate and allow to stand at room temperature for 2 h. Prepare 4× stop solution and add 4 μL stop solution to white wells. Read fluorescence data on the fluorescence meter Victor Nivo35. • 3) Data analysis:
[…] using Prism Graphpad 8.0.

Chain of rhCathepsin C/DPP1 (P53634 25-134): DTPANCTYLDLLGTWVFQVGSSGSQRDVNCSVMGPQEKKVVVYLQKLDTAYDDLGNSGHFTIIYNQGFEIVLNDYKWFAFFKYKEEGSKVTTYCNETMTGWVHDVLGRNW
Chain of rhCathepsin C/DPP1 (P53634 231-394): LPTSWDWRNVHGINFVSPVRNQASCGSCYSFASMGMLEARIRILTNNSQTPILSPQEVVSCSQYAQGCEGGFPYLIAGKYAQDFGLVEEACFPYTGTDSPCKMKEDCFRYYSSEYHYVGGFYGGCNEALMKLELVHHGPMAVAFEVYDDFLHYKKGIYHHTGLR
Chain of rhCathepsin C/DPP1 (P53634 395-463): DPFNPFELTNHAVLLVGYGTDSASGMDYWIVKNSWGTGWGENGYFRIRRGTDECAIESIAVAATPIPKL
Chain of DPP1 (P53634 25-463): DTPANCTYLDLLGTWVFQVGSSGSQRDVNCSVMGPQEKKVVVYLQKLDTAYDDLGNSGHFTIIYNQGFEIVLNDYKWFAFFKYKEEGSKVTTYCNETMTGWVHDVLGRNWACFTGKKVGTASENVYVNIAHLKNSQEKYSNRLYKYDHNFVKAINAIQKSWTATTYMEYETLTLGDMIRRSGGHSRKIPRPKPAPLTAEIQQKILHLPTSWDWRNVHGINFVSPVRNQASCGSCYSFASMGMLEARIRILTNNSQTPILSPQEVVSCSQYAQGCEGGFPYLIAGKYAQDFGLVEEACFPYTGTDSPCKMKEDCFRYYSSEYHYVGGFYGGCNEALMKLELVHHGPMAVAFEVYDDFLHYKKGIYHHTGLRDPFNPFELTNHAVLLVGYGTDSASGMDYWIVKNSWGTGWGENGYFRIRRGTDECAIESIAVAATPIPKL

Structure (SMILES): [2H]C([2H])([2H])[C@H]1OC(=O)c2ccc(-c3ccc(C[C@@H](C#N)NC(=O)[C@@H]4CNCCCO4)c(F)c3)cc21 [Compound D127]
IC50 (DPP1): 4.6 nM | IC50 (rhCathepsin C/DPP1): 4.2 nM

Structure (SMILES): N#C[C@H](Cc1ccc(-c2ccc3c(c2)C2(CCN(C4COC4)CC2)OC3=O)cc1F)NC(=O)[C@@H]1CNCCCO1 [Compound D92]
inhibition at 0.005 µM (DPP1): 30 to 75% | inhibition at 0.05 µM (DPP1): 75 to 100% | IC50 (DPP1): 5.9 nM | IC50 (rhCathepsin C/DPP1): 0.32 nM

Structure (SMILES): CC1CNC[C@@H](C(=O)N[C@H](C#N)Cc2ccc(-c3ccc4oc(=O)n(C)c4c3)cc2F)OC1 (some centres unmarked) [Compound D85]
inhibition at 0.005 µM (DPP1): 30 to 75% | inhibition at 0.05 µM (DPP1): 75 to 100% | IC50 (DPP1): 3 nM | IC50 (rhCathepsin C/DPP1): 3.2 nM

Structure (SMILES): CCN1CCC(=O)c2ccc(-c3ccc(C[C@@H](C#N)NC(=O)[C@@H]4CNCCCO4)c(F)c3)cc21 [Compound D120]
IC50 (DPP1): 3.42 nM | IC50 (rhCathepsin C/DPP1): 2.3 nM

Structure (SMILES): CN1CC2(C1)OC(=O)c1ccc(-c3ccc(C[C@@H](C#N)NC(=O)[C@@H]4CNCCCO4)cc3)cc12 [Compound D19]
inhibition at 0.005 µM (DPP1): 30 to 75% | inhibition at 0.05 µM (DPP1): 75 to 100% | IC50 (DPP1): 41 nM | IC50 (rhCathepsin C/DPP1): 3.5 nM

Structure (SMILES): N#C[C@H](Cc1ccc(-c2ccc3c(c2)CCC3=O)cc1)NC(=O)[C@@H]1CNCCCO1 [Compound D09]
inhibition at 0.005 µM (DPP1): 30 to 75% | inhibition at 0.05 µM (DPP1): 75 to 100% | IC50 (DPP1): 10 nM | IC50 (rhCathepsin C/DPP1): 5.4 nM

Structure (SMILES): N#C[C@H](Cc1ccc(-c2ccc3c(c2)C2(CCN(C4COC4)CC2)OC3)cc1)NC(=O)[C@@H]1CNCCCO1 [Compound D26]
inhibition at 0.005 µM (DPP1): 30 to 75% | inhibition at 0.05 µM (DPP1): 75 to 100% | IC50 (DPP1): 16 nM | IC50 (rhCathepsin C/DPP1): 3.1 nM

Structure (SMILES): CN1CC2(C1)OCc1ccc(-c3ccc(C[C@@H](C#N)NC(=O)[C@@H]4CNCCCO4)cc3)cc12 [Compound D20]
inhibition at 0.005 µM (DPP1): 30 to 75% | inhibition at 0.05 µM (DPP1): 75 to 100% | IC50 (DPP1): 35 nM | IC50 (rhCathepsin C/DPP1): 3.6 nM

Structure (SMILES): N#C[C@H](Cc1ccc(-c2ccc3oc(=O)n(C(F)F)c3c2)cc1)NC(=O)[C@@H]1CNCCCO1 [Compound D04]
inhibition at 0.005 µM (DPP1): 30 to 75% | inhibition at 0.05 µM (DPP1): 75 to 100% | IC50 (DPP1): 5.2 nM | IC50 (rhCathepsin C/DPP1): 3.9 nM

Continued, values first:

inhibition at 0.005 µM (DPP1): 30 to 75% | inhibition at 0.05 µM (DPP1): 75 to 100% | IC50 (DPP1): 29 nM | IC50 (rhCathepsin C/DPP1): 8 nM
Structure (SMILES): N#C[C@H](Cc1ccc(-c2ccc3c(c2)C2(COC2)OC3=O)cc1)NC(=O)[C@@H]1CNCCCO1 [Compound D21]

inhibition at 0.005 µM (DPP1): 30 to 75% | inhibition at 0.05 µM (DPP1): 75 to 100% | IC50 (DPP1): 10 nM | IC50 (rhCathepsin C/DPP1): 2.2 nM
Structure (SMILES): N#C[C@H](Cc1ccc(-c2ccc3c(c2)C2(CN(C4COC4)C2)OC3)cc1F)NC(=O)[C@@H]1CNCCCO1 [Compound D57]

inhibition at 0.005 µM (DPP1): 30 to 75% | inhibition at 0.05 µM (DPP1): 75 to 100% | IC50 (DPP1): 6.1 nM | IC50 (rhCathepsin C/DPP1): 1.7 nM
Structure (SMILES): Cn1cc(-n2c(=O)oc3ccc(-c4ccc(C[C@@H](C#N)NC(=O)[C@@H]5CNCCCO5)c(F)c4)cc32)cn1 [Compound D63]

inhibition at 0.005 µM (DPP1): 30 to 75% | inhibition at 0.05 µM (DPP1): 75 to 100% | IC50 (DPP1): 5.3 nM | IC50 (rhCathepsin C/DPP1): 2.5 nM
Structure (SMILES): N#C[C@H](Cc1ccc(-c2ccc3c(c2)COC3=O)cc1F)NC(=O)[C@@H]1CNCCCO1 [Compound D61]

IC50 (DPP1): 4.3 nM | IC50 (rhCathepsin C/DPP1): 1.36 nM
Structure (SMILES): N#C[C@H](Cc1ccc(-c2ccc3sc(=O)n(C4COC4)c3c2)cc1F)NC(=O)[C@@H]1CNCCCO1 [Compound D106]

inhibition at 0.005 µM (DPP1): 30 to 75% | inhibition at 0.05 µM (DPP1): 75 to 100% | IC50 (DPP1): 13.2 nM | IC50 (rhCathepsin C/DPP1): 0.58 nM
Structure (SMILES): CN1CC(n2c(=O)sc3ccc(-c4ccc(C[C@@H](C#N)NC(=O)[C@@H]5CNCCCO5)c(F)c4)cc32)C1 [Compound D70]

IC50 (DPP1): 15 nM | IC50 (rhCathepsin C/DPP1): 1.4 nM
Structure (SMILES): C[C@H]1OC(=O)c2ccc(-c3ccc(C[C@@H](C#N)NC(=O)[C@@H]4CNC[C@@H](F)CO4)c(F)c3)cc21 [Compound D123]

inhibition at 0.005 µM (DPP1): 30 to 75% | inhibition at 0.05 µM (DPP1): 75 to 100% | IC50 (DPP1): 3 nM | IC50 (rhCathepsin C/DPP1): 0.45 nM
Structure (SMILES): Cn1c(=O)oc2ccc(-c3ccc(C[C@@H](C#N)NC(=O)[C@@H]4CNCC5(CC5)CO4)c(F)c3)cc21 [Compound D46]

inhibition at 0.005 µM (DPP1): 30 to 75% | inhibition at 0.05 µM (DPP1): 75 to 100% | IC50 (DPP1): 5.7 nM | IC50 (rhCathepsin C/DPP1): 4.1 nM
Structure (SMILES): N#C[C@H](Cc1ccc(-c2ccc3oc(=O)n(CF)c3c2)cc1)NC(=O)[C@@H]1CNCCCO1 [Compound D02]

inhibition at 0.005 µM (DPP1): 30 to 75% | inhibition at 0.05 µM (DPP1): 75 to 100% | IC50 (DPP1): 8 nM | IC50 (rhCathepsin C/DPP1): 2.9 nM
Structure (SMILES): C[C@@H]1OC(=O)c2ccc(-c3ccc(C[C@@H](C#N)NC(=O)[C@@H]4CNCCCO4)c(F)c3)cc21 [Compound D74]
